Data published in US12435059B2, “AMP-activated protein kinase inhibitors and methods of making and using the same” (The Regents of the University of Colorado, priority 2019, dated 2025).
Where two headings read alike, the source gives them in different places.

Columns and labels:
Assay in all cases: biochemical
Type in all cases: binding
468 kinases [1] = target: 468 kinases (Homo sapiens, UniProt P21127); details: CDC2L1; read-out: % Inhibition @ 100 nM
468 kinases [2] = target: 468 kinases (Homo sapiens, UniProt P54764); details: EPHA4; read-out: % Inhibition @ 100 nM
468 kinases [3] = target: 468 kinases (Homo sapiens, UniProt Q14164); details: IKK-epsilon; read-out: % Inhibition @ 100 nM
468 kinases [4] = target: 468 kinases (Homo sapiens, UniProt P08581, Y1235D); details: MET(Y1235D); read-out: % Inhibition @ 100 nM
468 kinases [5] = target: 468 kinases (Homo sapiens, UniProt Q9NRP7); details: STK36; read-out: % Inhibition @ 100 nM
468 kinases [6] = target: 468 kinases (Homo sapiens, UniProt Q6P3R8); details: NEK5; read-out: % Inhibition @ 100 nM
468 kinases [7] = target: 468 kinases (Homo sapiens, UniProt P48730); details: CSNK1D; read-out: % Inhibition @ 100 nM
468 kinases [8] = target: 468 kinases (Homo sapiens, UniProt Q9C098); details: DCAMKL3; read-out: % Inhibition @ 100 nM
468 kinases [9] = target: 468 kinases (Homo sapiens, UniProt Q96RR4); details: CAMKK2; read-out: % Inhibition @ 100 nM
468 kinases [10] = target: 468 kinases (Homo sapiens, UniProt P19525); details: PRKR; read-out: % Inhibition @ 100 nM
468 kinases [11] = target: 468 kinases (Homo sapiens, UniProt P80192); details: MLK1; read-out: % Inhibition @ 100 nM
468 kinases [12] = target: 468 kinases (Homo sapiens, UniProt P00533, L861Q); details: EGFR(L861Q); read-out: % Inhibition @ 100 nM
468 kinases [13] = target: 468 kinases (Homo sapiens, UniProt P27037); details: ACVR2A; read-out: % Inhibition @ 100 nM
468 kinases [14] = target: 468 kinases (Homo sapiens, UniProt Q96PN8); details: TSSK3; read-out: % Inhibition @ 100 nM
468 kinases [15] = target: 468 kinases (Homo sapiens, UniProt P53667); details: LIMK1; read-out: % Inhibition @ 100 nM
468 kinases [16] = target: 468 kinases (Homo sapiens, UniProt Q9UK32); details: read-out: % Inhibition @ 100 nM
468 kinases [17] = target: 468 kinases (Homo sapiens, UniProt Q15835); details: GRK1; read-out: % Inhibition @ 100 nM
468 kinases [18] = target: 468 kinases (Homo sapiens, UniProt O43318); details: TAK1; read-out: % Inhibition @ 100 nM
468 kinases [19] = target: 468 kinases (Homo sapiens, UniProt Q8WXR4); details: MYO3B; read-out: % Inhibition @ 100 nM
468 kinases [20] = target: 468 kinases (Homo sapiens, UniProt Q96GD4); details: AURKB; read-out: % Inhibition @ 100 nM
468 kinases [21] = target: 468 kinases (Homo sapiens, UniProt Q59H18); details: TNNI3K; read-out: % Inhibition @ 100 nM
468 kinases [22] = target: 468 kinases (Homo sapiens, UniProt Q16288); details: TRKC; read-out: % Inhibition @ 100 nM
468 kinases [23] = target: 468 kinases (Homo sapiens, UniProt Q07002); details: PCTK3; read-out: % Inhibition @ 100 nM
468 kinases [24] = target: 468 kinases (Homo sapiens, UniProt P51956); details: NEK3; read-out: % Inhibition @ 100 nM
468 kinases [25] = target: 468 kinases (Homo sapiens, UniProt Q9H422); details: HIPK3; read-out: % Inhibition @ 100 nM
468 kinases [26] = target: 468 kinases (Homo sapiens, UniProt Q9UL54); details: TAOK2; read-out: % Inhibition @ 100 nM
468 kinases [27] = target: 468 kinases (Homo sapiens, UniProt Q9Y2I7); details: PIKFYVE; read-out: % Inhibition @ 100 nM
468 kinases [28] = target: 468 kinases (Homo sapiens, UniProt P29320); details: EPHA3; read-out: % Inhibition @ 100 nM
468 kinases [29] = target: 468 kinases (Homo sapiens, UniProt Q00535); details: CDK5; read-out: % Inhibition @ 100 nM
468 kinases [30] = target: 468 kinases (Homo sapiens, UniProt Q9BQI3); details: EIF2AK1; read-out: % Inhibition @ 100 nM
468 kinases [31] = target: 468 kinases (Homo sapiens, UniProt P48729); details: CSNK1A1; read-out: % Inhibition @ 100 nM
468 kinases [32] = target: 468 kinases (Homo sapiens, UniProt P37023); details: ACVRL1; read-out: % Inhibition @ 100 nM
468 kinases [33] = target: 468 kinases (Homo sapiens, UniProt P50750); details: CDK9; read-out: % Inhibition @ 100 nM

Structure (SMILES)	inhibition at 0.1 µM (468 kinases [1])	inhibition at 0.1 µM (468 kinases [2])	inhibition at 0.1 µM (468 kinases [3])	inhibition at 0.1 µM (468 kinases [4])	inhibition at 0.1 µM (468 kinases [5])	inhibition at 0.1 µM (468 kinases [6])	inhibition at 0.1 µM (468 kinases [7])	inhibition at 0.1 µM (468 kinases [8])	inhibition at 0.1 µM (468 kinases [9])	inhibition at 0.1 µM (468 kinases [10])	inhibition at 0.1 µM (468 kinases [11])	inhibition at 0.1 µM (468 kinases [12])	inhibition at 0.1 µM (468 kinases [13])	inhibition at 0.1 µM (468 kinases [14])	inhibition at 0.1 µM (468 kinases [15])	inhibition at 0.1 µM (468 kinases [16]; RSK4(Kin.Dom.1-N-terminal))	inhibition at 0.1 µM (468 kinases [16]; RSK4(Kin.Dom.2-C-terminal))	inhibition at 0.1 µM (468 kinases [17])	inhibition at 0.1 µM (468 kinases [18])	inhibition at 0.1 µM (468 kinases [19])	further results
CCN(CC)CCNC(=O)c1c(C)[nH]c(/C=C2\C(=O)Nc3ccc(CCC(N)=O)cc32)c1C [Compound No. 16, (Z)-5-((5-(3-Amino-3-oxopropyl)-2-oxoindolin-3-ylidene)methyl)-N-(2-(diethylamino)ethyl)-2,4-dimethyl-1H-pyrrole-3-carboxamide]	7%	0%	44%	0%	0%	19%	9%	88%	49%	29%	5%	4%	18%	5%	17%	70%	22%	37%	61%	0%	inhibition at 0.1 µM (468 kinases [20]): 34%; inhibition at 0.1 µM (468 kinases [21]): 5%; inhibition at 0.1 µM (468 kinases [22]): 63%; inhibition at 0.1 µM (468 kinases [23]): 9%; inhibition at 0.1 µM (468 kinases [24]): 45%; inhibition at 0.1 µM (468 kinases [25]): 95.3%; inhibition at 0.1 µM (468 kinases [26]): 21%; inhibition at 0.1 µM (468 kinases [27]): 27%; inhibition at 0.1 µM (468 kinases [28]): 14%; inhibition at 0.1 µM (468 kinases [29]): 0%; inhibition at 0.1 µM (468 kinases [30]): 42%; inhibition at 0.1 µM (468 kinases [31]): 27%; inhibition at 0.1 µM (468 kinases [32]): 0%; inhibition at 0.1 µM (468 kinases [33]): 6%
CCN(CC)CCNC(=O)c1c(C)[nH]c(/C=C2\C(=O)Nc3ccc(CCO)cc32)c1C [Compound No. 10, (Z)—N-(2-(Diethylamino)ethyl)-5-((5-(2-hydroxyethyl)-2-oxoindolin-3-ylidene)methyl)-2,4-dimethyl-1H-pyrrole-3-carboxamide]	0%	0%	68%	4%	0%	0%	29%	73%	29%	2%	1%	39%	10%	4%	0%	0%	4%	39%	59%	0%	inhibition at 0.1 µM (468 kinases [20]): 20%; inhibition at 0.1 µM (468 kinases [21]): 0%; inhibition at 0.1 µM (468 kinases [22]): 60%; inhibition at 0.1 µM (468 kinases [23]): 12%; inhibition at 0.1 µM (468 kinases [24]): 50%; inhibition at 0.1 µM (468 kinases [25]): 21%; inhibition at 0.1 µM (468 kinases [26]): 18%; inhibition at 0.1 µM (468 kinases [27]): 6%; inhibition at 0.1 µM (468 kinases [28]): 0%; inhibition at 0.1 µM (468 kinases [29]): 0%; inhibition at 0.1 µM (468 kinases [30]): 0%; inhibition at 0.1 µM (468 kinases [31]): 14%; inhibition at 0.1 µM (468 kinases [32]): 0%; inhibition at 0.1 µM (468 kinases [33]): 0%
